# Data: PubChem BioAssay AID1117345
# Active and inactive are the calls of the source. The rule behind the calls is not given here.
# System: STC-1 cells GLP-1 secretion
# Test: half-maximal inhibitory concentration, STC-1 line, glucagon-like peptide-1 release potency, dose-dependent response (AID 1117345)
row,Structure (SMILES),IC50
1,Cc1ccc([N+](=O)[O-])[c]2c1[O][Hg]2,97.2 nM
2,CCCCCCCCCCCCCC[N+](C)(C)C,> 40000 nM (inactive)
3,CCCCCCCCCCCC(=O)[O][Sn]([CH2]CCC)([CH2]CCC)[O]C(=O)CCCCCCCCCCC,> 40000 nM (inactive)
4,OCCN1CCN(CC/C=C2/c3ccccc3Sc3ccc(C(F)(F)F)cc32)CC1,> 40000 nM (inactive)
5,CC(=O)[O][Hg][c]1ccccc1,713 nM
